# Data reported in paper PMC10385824, “Antiproliferative and Tubulin-Destabilising Effects of 3-(Prop-1-en-2-yl)azetidin-2-Ones and Related Compounds in MCF-7 and MDA-MB-231 Breast Cancer Cells” (Pharmaceuticals, 2023).
# Read-outs that look alike come from different tables or passages of the source.
# What was measured:
# UO-31 = assay: NCI-60 SRB screen, renal cancer; format: cell-based, human; conditions: Homo sapiens
# HCT-15 = assay: NCI-60 SRB screen, colon cancer; format: cell-based, human; conditions: Homo sapiens
# A498 = assay: NCI-60 SRB screen, renal cancer; format: cell-based, human; conditions: Homo sapiens
# SK-MEL-5 = assay: NCI-60 SRB screen, melanoma; format: cell-based, human; conditions: Homo sapiens
# T-47D = assay: NCI-60 SRB screen, breast cancer; format: cell-based, human; conditions: Homo sapiens, T47D, 48 h
# K-562 = assay: NCI-60 SRB screen, leukemia; format: cell-based, human; conditions: Homo sapiens, K562, 48 h
# OVCAR-3 = assay: NCI-60 SRB screen, ovarian cancer; format: cell-based, human; conditions: Homo sapiens
# EKVX = assay: NCI-60 SRB screen, non-small cell lung cancer; format: cell-based, human; conditions: Homo sapiens, 48 h
# TK-10 = assay: NCI-60 SRB screen, renal cancer; format: cell-based, human; conditions: Homo sapiens
# PC-3 = assay: NCI-60 SRB screen, prostate cancer; format: cell-based, human; conditions: Homo sapiens
# M14 = assay: NCI-60 SRB screen, melanoma; format: cell-based, human; conditions: Homo sapiens
# MCF-7 = assay: cells; conditions: Homo sapiens, MCF7, 48 h
# MDA-MB-468 = assay: NCI-60 SRB screen, breast cancer; format: cell-based, human; conditions: Homo sapiens
# NCI-H552 = assay: NCI-60 SRB screen, non-small cell lung cancer; format: cell-based, human; conditions: Homo sapiens, 48 h
# NCI-H460 = assay: NCI-60 SRB screen, non-small cell lung cancer; format: cell-based, human; conditions: Homo sapiens
# HOP-62 = assay: NCI-60 SRB screen, non-small cell lung cancer; format: cell-based, human; conditions: Homo sapiens
# [1] = test system: NCI 60 human cancer cell line panel; assay: NCI 60 cell line screen (SRB), panel values; conditions: for CC50: read-out: Mean LC50; for IC (TGI (total growth inhibition)): read-out: Mean TGI
# OVCAR-4 = assay: NCI-60 SRB screen, ovarian cancer; format: cell-based, human; conditions: Homo sapiens
# DU-145 = assay: NCI-60 SRB screen, prostate cancer; format: cell-based, human; conditions: Homo sapiens
# OVCAR-5 = assay: NCI-60 SRB screen, ovarian cancer; format: cell-based, human; conditions: Homo sapiens
# UACC-62 = assay: NCI-60 SRB screen, melanoma; format: cell-based, human; conditions: Homo sapiens
# NCI-H23 = assay: NCI-60 SRB screen, non-small cell lung cancer; format: cell-based, human; conditions: Homo sapiens
# NCI/ADR-RES = assay: NCI-60 SRB screen, ovarian cancer; format: cell-based, human; conditions: Homo sapiens, 48 h
# HS 578T = assay: NCI-60 SRB screen, breast cancer; format: cell-based; conditions: Homo sapiens, 48 h
# SNB-75 = assay: NCI-60 SRB screen, CNS cancer; format: cell-based, human; conditions: Homo sapiens
# HCT-116 = assay: NCI-60 SRB screen, colon cancer; format: cell-based, human; conditions: Homo sapiens
# [2] = test system: MCF-7 human breast cancer cells; assay: cells
# MOLT-4 = assay: NCI-60 SRB screen, leukemia; format: cell-based, human; conditions: Homo sapiens
# SK-MEL-2 = assay: NCI-60 SRB screen, melanoma; format: cell-based, human; conditions: Homo sapiens; SK-MEL-2; five dose 0.01–100 µM, 48 h; read-out: GI50
# MALME-3M = assay: NCI-60 SRB screen, melanoma; format: cell-based, human; conditions: Homo sapiens; MALME-3M; five dose 0.01–100 µM, 48 h; read-out: GI50
# SNB-19 = assay: NCI-60 SRB screen, CNS cancer; format: cell-based, human; conditions: Homo sapiens
# [3] = test system: MDA-MB-231 human breast cancer cells; assay: Alamar Blue cell viability (antiproliferative) assay; format: cell-based
# [4] = UO-31, five dose 0.01–100 µM, 48 h, read-out: GI50
# [5] = HCT-15, five dose 0.01–100 µM, 48 h, read-out: GI50
# [6] = A498, five dose 0.01–100 µM, 48 h, read-out: GI50
# [7] = SK-MEL-5, five dose 0.01–100 µM, 48 h, read-out: GI50
# [8] = T-47D, five dose 0.01–100 µM, read-out: GI50
# [9] = OVCAR-3, five dose 0.01–100 µM, 48 h, read-out: GI50
# [10] = five dose 0.01–100 µM, read-out: GI50
# [11] = TK-10, five dose 0.01–100 µM, 48 h, read-out: GI50
# [12] = PC-3, five dose 0.01–100 µM, 48 h, read-out: GI50
# [13] = M14, five dose 0.01–100 µM, 48 h, read-out: GI50
# [14] = MDA-MB-468, five dose 0.01–100 µM, 48 h, read-out: GI50
# [15] = NCI-H552, five dose 0.01–100 µM, read-out: GI50
# [16] = NCI-H460, five dose 0.01–100 µM, 48 h, read-out: GI50
# [17] = HOP-62, five dose 0.01–100 µM, 48 h, read-out: GI50
# [18] = Homo sapiens, 60 cell, read-out: Mean GI50, mean over all NCI 60 cell lines
# [19] = read-out: Mean GI50, mean over all NCI 60 cell lines
# [20] = OVCAR-4, five dose 0.01–100 µM, 48 h, read-out: GI50
# [21] = DU-145, five dose 0.01–100 µM, 48 h, read-out: GI50
# [22] = OVCAR-5, five dose 0.01–100 µM, 48 h, read-out: GI50
# [23] = UACC-62, five dose 0.01–100 µM, 48 h, read-out: GI50
# [24] = NCI-H23, five dose 0.01–100 µM, 48 h, read-out: GI50
# [25] = HS 578T, five dose 0.01–100 µM, read-out: GI50
# [26] = SNB-75, five dose 0.01–100 µM, 48 h, read-out: GI50
# [27] = HCT-116, five dose 0.01–100 µM, 48 h, read-out: GI50
# [28] = MOLT-4, five dose 0.01–100 µM, 48 h, read-out: GI50
compound,measurement,setting,value
"C=C(C)C1C(=O)N(c2cc(OC)c(OC)c(OC)c2)C1c1ccc(OC)c(N)c1 (centres unmarked) [9s, 4-(3-Amino-4-methoxyphenyl)-1-(3,4,5-trimethoxyphenyl)-3-(prop-1-en-2-yl)azetidin-2-one]",GI50,UO-31; [4],74 nM
same,GI50,HCT-15; [5],41.6 nM
same,GI50,A498; [6],23.4 nM
same,GI50,SK-MEL-5; [7],23.2 nM
same,GI50,T-47D; [8],> 100000 nM
same,GI50,K-562; read-out: GI50,38.3 nM
same,GI50,OVCAR-3; [9],22.8 nM
same,GI50,EKVX; [10],587 nM
same,GI50,TK-10; [11],64.9 nM
same,GI50,PC-3; [12],37.9 nM
same,GI50,M14; [13],24.8 nM
same,GI50,MCF-7,32.4 nM
same,GI50,MDA-MB-468; [14],21.6 nM
same,GI50,NCI-H552; [15],14.6 nM
same,GI50,NCI-H460; [16],33.2 nM
same,GI50,HOP-62; [17],52.1 nM
same,GI50,[1]; [18],< 91.2 nM
same,CC50,"[1]; Homo sapiens, 60 cell",75900 nM
same,IC (TGI (total growth inhibition)),"[1]; Homo sapiens, 60 cell",22400 nM
same,GI50,[1]; [19],55 nM
same,GI50,OVCAR-4; [20],40.7 nM
same,GI50,DU-145; [21],23.6 nM
same,GI50,OVCAR-5; [22],81.3 nM
same,GI50,UACC-62; [23],40.6 nM
same,GI50,NCI-H23; [24],25.8 nM
same,GI50,NCI/ADR-RES; [10],18.5 nM
same,GI50,HS 578T; [25],40.9 nM
same,GI50,SNB-75; [26],60.1 nM
same,GI50,HCT-116; [27],30.2 nM
same,IC50,"[2]; MCF7, MCF-7",33 nM
same,GI50,MOLT-4; [28],37.2 nM
same,GI50,SK-MEL-2,67.6 nM
"C=C(C)C1C(=O)N(c2cc(OC)c(OC)c(OC)c2)C1c1ccc(OC)c(OP(=O)(O)O)c1 (centres unmarked) [15a, 2-Methoxy-5-(4-oxo-3-(prop-1-en-2-yl)-1-(3,4,5-trimethoxyphenyl)azetidin-2-yl)-phenyl dihydrogen phosphate]",GI50,UO-31; [4],182 nM
same,GI50,HCT-15; [5],70.7 nM
same,GI50,A498; [6],32.4 nM
same,GI50,SK-MEL-5; [7],40.6 nM
same,GI50,T-47D; [8],> 100000 nM
same,GI50,K-562; read-out: GI50,45 nM
same,GI50,OVCAR-3; [9],62.4 nM
same,GI50,TK-10; [11],43100 nM
same,GI50,PC-3; [12],49.4 nM
same,GI50,M14; [13],123 nM
same,GI50,MALME-3M,30100 nM
same,GI50,MCF-7,51.3 nM
same,GI50,MDA-MB-468; [14],131 nM
same,GI50,NCI-H552; [15],26 nM
same,GI50,NCI-H460; [16],44.8 nM
same,GI50,HOP-62; [17],105 nM
same,GI50,[1]; [18],138 nM
same,CC50,"[1]; Homo sapiens, 60 cell",85100 nM
same,IC (TGI (total growth inhibition)),"[1]; Homo sapiens, 60 cell",43600 nM
same,GI50,OVCAR-4; [20],73.9 nM
same,GI50,DU-145; [21],80.9 nM
same,GI50,OVCAR-5; [22],535 nM
same,GI50,"SNB-19; SNB-19, five dose 0.01–100 µM, 48 h, read-out: GI50",429 nM
same,GI50,UACC-62; [23],55.5 nM
same,GI50,NCI-H23; [24],90.2 nM
same,GI50,NCI/ADR-RES; [10],36.5 nM
same,GI50,HS 578T; [25],63.1 nM
same,GI50,SNB-75; [26],36.1 nM
same,GI50,HCT-116; [27],50.6 nM
same,IC50,"[3]; 72 h, eight concentrations 0.001-50 μM, mean ± SEM, read-out: Antiproliferative Activity IC50",32 ± 5 nM
same,IC50,[2]; MCF7,19 nM
same,GI50,MOLT-4; [28],85.2 nM
same,GI50,SK-MEL-2,75 nM
"C=C/C=C/C1C(=O)N(c2cc(OC)c(OC)c(OC)c2)C1c1ccc(OC)c(N)c1 (centres unmarked) [11r, (E)-4-(3-Amino-4-methoxyphenyl)-3-(buta-1,3-dien-1-yl)-1-(3,4,5-trimethoxyphenyl)azetidin-2-one]",GI50,"UO-31; UO-31, 48 h",190 nM
same,GI50,"HCT-15; HCT-15, 48 h",37 nM
same,GI50,"A498; A498, 48 h",22.3 nM
same,GI50,"SK-MEL-5; SK-MEL-5, 48 h",22.2 nM
same,GI50,T-47D,> 100000 nM
same,GI50,K-562,39.3 nM
same,GI50,"OVCAR-3; OVCAR-3, 48 h",26.2 nM
same,GI50,EKVX,88 nM
same,GI50,"TK-10; TK-10, 48 h",74.8 nM
same,GI50,"PC-3; PC-3, 48 h",39.2 nM
same,GI50,"M14; M14, 48 h",22.3 nM
same,GI50,MCF-7,33.6 nM
same,GI50,"MDA-MB-468; MDA-MB-468, 48 h",26.7 nM
same,GI50,NCI-H552,16.9 nM
same,GI50,"NCI-H460; NCI-H460, 48 h",33.2 nM
same,GI50,"HOP-62; HOP-62, 48 h",52.5 nM
same,GI50,[1]; [18],< 91.2 nM
same,CC50,"[1]; Homo sapiens, 60 cell",77600 nM
same,IC (TGI (total growth inhibition)),"[1]; Homo sapiens, 60 cell",38000 nM
same,GI50,[1]; [19],91.2 nM
same,GI50,"OVCAR-4; OVCAR-4, 48 h",38.8 nM
same,GI50,"DU-145; DU-145, 48 h",26 nM
same,GI50,"OVCAR-5; OVCAR-5, 48 h",93.7 nM
same,GI50,"SNB-19; SNB-19, 48 h",64.9 nM
same,GI50,"UACC-62; UACC-62, 48 h",39.6 nM
same,GI50,"NCI-H23; NCI-H23, 48 h",30 nM
same,GI50,NCI/ADR-RES,19.6 nM
same,GI50,HS 578T; Hs-578T,53 nM
same,GI50,"SNB-75; SNB-75, 48 h",36.8 nM
same,GI50,"HCT-116; HCT-116, 48 h",27.2 nM
same,IC50,[3]; read-out: IC50,33 nM
same,IC50,"[2]; MCF7, read-out: Antiproliferative Activity IC50",36 ± 5 nM
same,GI50,"MOLT-4; MOLT-4, 48 h",39.6 nM
